Assay results reported in patent US9713613B2, “Methods and compositions for the treatment of cancer and related hyperproliferative disorders” (priority 2007, dated 2017).

How the values were obtained:
mice (129Sv background) = assay: mice, 48 hrs fasting / 48 hrs refeeding fat free diet; type: in vivo
Protocol: The drug-like chemical structure of fatostatin A prompted the inventors to investigate its ability to inhibit SREBP-1 in the liver of whole animals. The effect of fatostatin A on hepatic SREBP-1 under lipogenic conditions of prolonged fasting (48 hours) followed by feeding fat free high carbohydrate diet for another 48 hours was examined. Mice were intraperitoneally injected with fatostatin A at 30 mg/kg/day for 5 days starting one day prior to the 48-hour fasting period. After 48 hours of fasting, the treated group lost more weight than the control group did (6.12±0.6 compared to 4.9±0.3 gram/mouse; p=0.01.) (FIG. 6A).
The expression levels of SREBP-1 in the liver extracts were examined by western blots. […] The hepatic expression of fatty acid synthase (FAS), a representative of SREBP-1-responsive lipogenic enzymes (Boizard et al., 1998), was also determined after the treatment. […] The activity of acetyl-CoA carboxylase (ACC) (FIG. 6F), which is also regulated by SREBP-1, decreased in liver extracts as observed for FAS (FIG. 6G).
Male mice (129Sv background) were housed under controlled conditions (12-hr light/dark cycle; 25° C.) in the Animal Care Center at Baylor College of Medicine and had ad libitum access to standard laboratory chow (Purina Mills) and water. Fatostatin A was administered intraperitoneally (30 mg/kg; 150 μL) to 5-6 month old male mice (129Sv background) using two different protocols. First protocol involves fasting the mice for 48 hrs, followed by refeeding fat free diet for another 48 hrs. This treatment induces both activities and levels of lipogenic enzymes such as ACC and FAS in addition to SREBPs. The administration of fatostatin A or 10% DMSO in PBS to control groups (n=5) started 24 hrs before the fasting and continued daily until the end of the experiment.
In the second protocol, two groups of male mice (n=5) were treated daily for two weeks with either 30 mg/kg fatostatin A or 10% DMSO in PBS. Food intake and body weight were measured daily. At the end of the experiments, the mice were briefly fasted for 4-5 hrs, and their blood was withdrawn for determination of serum constituents. The mice were then sacrificed, and their livers were quickly removed and ground to powder in liquid nitrogen. The powdered tissues were suspended in 10 ml of PBS containing 0.1 mM PMSF, 5 mM benzamidine, and 5 mg/mL protease inhibitor cocktail (Roche), homogenized using Polytron (3×30 Sec, at a high speed), and sonicated briefly to degrade DNA. The extracts were clarified by centrifugation at 16,000×g for 20 min. The samples were then subjected to western blot analysis using commercially available antibodies against FAS and SREBP-1. FAS and ACC activities were determined as described earlier (Mao et al., 2006).

HePG2 cells = assay: HePG2 cell growth, SREBP-1 western blot; type: cell-based, human
Protocol: Cells were seeded onto 16 well plates at a density of 100000 cells/well in medium containing 2% charcoal stripped serum. After 24 hours, compound 19 was added to the cells at the indicated concentrations for another 48 hours. […] Values are depicted as means±SD; *P<0.05.

RPMI8226 cells = assay: RPMI8226 cell growth, MTT assay; type: cell-based, human; settings: 5 μM, 48 hours
Protocol: 10,000 MOLT-4 cells (FIGS. 35A-35C) and 20,000 RPM18226 cells (FIGS. 35D-35F) were seeded onto 96 well plate in RPMI 1640 medium containing 5% FBS or fat-free charcoal treated serum (FF-FBS) for 24 hours at 37 C. MOLT-4 and RPM18226 cells were treated for additional 48 hours with different concentrations of compound 19 (None control without DMSO, Vehicle with DMSO, 1, 2, 5, 10 and 20 μM in DMSO; RPM18226 cells also were treated with 3 μM in DMSO). At the end of 48 hours cells were subjected to MTT assay to determine viability. Values are depicted as means±SD; *P<0.05.
20,000 MOLT-4 cells (FIGS. 36A-36C) and 20,000 RPM18226 cells (FIGS. 36D-36F) cells were seeded onto 96 well plates in RPMI 1640 Medium containing 5% Fetal bovine serum (FBS) or 5% fat free charcoal treated serum (FF-FBS) for 24 hours at 37 C. Cells then were treated for additional 48 hours with different concentrations of compound 17 (None control without DMSO, Vehicle with DMSO, 1, 2, 3, 5, 10 and 20 μM in DMSO). At the end of the 48 hours treatment cells were subjected to MTT assay to determine viability. Values are depicted as means±SD (n=3); **P<0.001; ***P<0.0001.
RPM18226 cells were grown under the same conditions as the MOLT-4 cells. 20,000 cells were seeded into 96 well plates for 24 hrs prior to treatment with increasing concentrations of compound 19 as described for MOLT-4 cells. […]

CCCc1cc(-c2nc(-c3ccc(C)cc3)cs2)ccn1 [Compound 1, 2-propyl-4-(4-p-tolylthiazol-2-yl)pyridine]
decrease of FAS expression level in liver extracts (western blot) (mice (129Sv background); 30 mg/kg/day ip): up to 30%
food intake and toxicity during the treatment (mice (129Sv background); 30 mg/kg/day ip for 5 days): No reduction of food intake or obvious toxicity
weight lost after 48 hours of fasting (mice (129Sv background); 30 mg/kg/day ip, control 4.9±0.3): 6.12±0.6 gram/mouse
serum glucose (mice (129Sv background); after 48 hours of refeeding fat free high carbohydrate diet, control 137±14): 110 ± 23 mg/dL
serum LDL (mice (129Sv background); after 48 hours of refeeding, control 30±6): 16 ± 5 mg/dL
serum cholesterol (mice (129Sv background); after 48 hours of refeeding, control 120±19): 93 ± 20 mg/dL

CCCc1cc(-c2nc(-c3ccc(NS(C)(=O)=O)cc3)cs2)ccn1 [Compound 19, N-(4-(2-(2-propylpyridin-4-yl)thiazol-4-yl)phenyl)methanesulfonamide]
level of mature and precursor forms of SREBP-1 (western blot) (HePG2 cells; 25 μM, HePG2 cells): significant decrease in the level of the mature and active form
toxicity, morphology and growth of treated cells (HePG2 cells; 25, 50 and 100 μM, 48 hours): high level of toxicity
growth inhibition in 5% FF FBS relative to 5% FBS (RPMI8226 cells): about 1.5
